Assay results from patent US12173003B1, “Pyrrolo[3,2-C][2,6]naphthyridine-2-carboxylic acid compounds as CK2 inhibitors” (KING FAISAL UNIVERSITY, priority 2023, dated 2024).

Key:
[1] = tested on: HCT116 (colon); assay: In vitro cytotoxic activity MTT assay, HCT116; format: cell-based; conditions: Homo sapiens, HCT-116; HCT116 cells, exposed for 96 hours; read-out: IC50, 50% inhibition of cell proliferation, HCT116 (colon)
Method: (§1) Compounds 1-16 were screened for their in vitro cytotoxic activity utilizing a 3-(4,5-dimethyl-thiazol-2-yl)-2,5-diphenyltetrazolium bromide (MTT) assay against selected cancer human cell lines consisting of PC3 (prostate), HCT116 (colon), A375 (melanoma), H1299 (lung), MIAPaCa-2 (pancreas), HL60 (leukemia), MCF7 (breast), MDA-MB-231 (breast) (T. Mosmann, J. Immunol. Meth., 1983, 65, 55-63). The cells were cultured at 37° C. in RMPI1640 medium supplemented with 10% fetal bovine serum, 50 IU/mL penicillin, and 50 μg/mL streptomycin in a 5% CO2 incubator. All cells were sub-cultured 3 times/week by trypsinisation. Viable cells were seeded and allowed to adhere for 12 h before a test drug was added in 96-well plates at an initial density of 1.0×10^5 cells/mL. Tumour cell lines were separately exposed to various concentrations of the tested compounds followed by incubation at a temperature of 37° C. during 96 h inside a medium of fresh RMPI 1640. Cells were subsequently incubated at 37° C. using MTT at 0.5 mg/mL during 4 h. After removal of supernatant, formazan crystals were dissolved in isopropanol and the optical density was measured at 570 nm. CX-4945 was used as a positive control.

[2] = tested on: HL60 (leukemia); assay: In vitro cytotoxic activity MTT assay, HL60; format: cell-based; conditions: Homo sapiens, HL-60; HL60 cells, exposed for 96 hours; read-out: IC50, 50% inhibition of cell proliferation, HL60 (leukemia)
Method: as §1

[3] = tested on: MDA-MB-231 (breast); assay: In vitro cytotoxic activity MTT assay, MDA-MB-231; format: cell-based; conditions: Homo sapiens; MDA-MB-231 cells, exposed for 96 hours; read-out: IC50, 50% inhibition of cell proliferation, MDA-MB-231 (breast)
Method: as §1

[4] = tested on: PC3 (prostate); assay: In vitro cytotoxic activity MTT assay, PC3; format: cell-based; conditions: Homo sapiens, PC-3; PC3 cells, exposed for 96 hours; read-out: IC50, 50% inhibition of cell proliferation, PC3 (prostate)
Method: as §1

[5] = tested on: MCF7 (breast); assay: In vitro cytotoxic activity MTT assay, MCF7; format: cell-based; conditions: Homo sapiens; MCF7 cells, exposed for 96 hours; read-out: IC50, 50% inhibition of cell proliferation, MCF7 (breast)
Method: as §1

[6] = tested on: MIAPaCa-2 (pancreas); assay: In vitro cytotoxic activity MTT assay, MIAPaCa-2; format: cell-based; conditions: Homo sapiens, MIA PaCa-2; MIAPaCa-2 cells, exposed for 96 hours; read-out: IC50, 50% inhibition of cell proliferation, MIAPaCa-2 (pancreas)
Method: as §1

[7] = tested on: H1299 (lung); assay: In vitro cytotoxic activity MTT assay, H1299; format: cell-based; conditions: Homo sapiens, NCI-H1299; H1299 cells, exposed for 96 hours; read-out: IC50, 50% inhibition of cell proliferation, H1299 (lung)
Method: as §1

[8] = tested on: A375 (melanoma); assay: In vitro cytotoxic activity MTT assay, A375; format: cell-based; conditions: Homo sapiens, A-375; A375 cells, exposed for 96 hours; read-out: IC50, 50% inhibition of cell proliferation, A375 (melanoma)
Method: as §1

[9] = biological target: T1, recombinant human CK2 (Homo sapiens, UniProt P68400); assay: CK2 Kinase Assay (33P-ATP, filter plate); format: biochemical; conditions: final ATP concentration 15 μM, 10 min at 30° C.; read-out: protein kinase CK2 IC50
T1 construct: purchased Millipore
T1 sequence (P68400 whole entry): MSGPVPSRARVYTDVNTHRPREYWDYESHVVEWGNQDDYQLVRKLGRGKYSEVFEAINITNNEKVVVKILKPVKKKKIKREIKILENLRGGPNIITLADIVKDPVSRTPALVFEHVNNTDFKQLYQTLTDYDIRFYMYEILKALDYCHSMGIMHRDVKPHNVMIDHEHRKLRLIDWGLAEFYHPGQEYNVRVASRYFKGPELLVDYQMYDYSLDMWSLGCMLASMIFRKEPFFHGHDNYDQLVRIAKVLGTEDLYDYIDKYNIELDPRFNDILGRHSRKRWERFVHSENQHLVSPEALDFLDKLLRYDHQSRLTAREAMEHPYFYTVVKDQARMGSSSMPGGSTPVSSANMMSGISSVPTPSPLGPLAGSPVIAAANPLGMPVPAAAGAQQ
T1 sequence (P67870 whole entry partner): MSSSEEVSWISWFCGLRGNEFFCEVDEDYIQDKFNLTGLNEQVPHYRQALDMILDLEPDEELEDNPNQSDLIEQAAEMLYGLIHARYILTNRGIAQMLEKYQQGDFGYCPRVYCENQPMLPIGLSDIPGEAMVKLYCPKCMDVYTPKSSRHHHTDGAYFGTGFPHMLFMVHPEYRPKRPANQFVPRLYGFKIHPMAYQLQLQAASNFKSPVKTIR
Method: CK2 Kinase Assay was conducted using the protocol as described in Pierre F. et al; J. Med. Chem. 2011, 54, 635-654. The tested compounds in aqueous solution were added at a volume of 10 μL to a reaction mixture comprising 10 μL of assay dilution buffer (ADB; 20 mM MOPS, pH 7.2, 25 mM β-glycerol phosphate, 5 mM EGTA, 1 mM sodium orthovanadate, and 1 mM dithiothreitol), 10 μL of substrate peptide (RRRDDDSDDD, dissolved in ADB at a concentration of 1 mM), 10 μL of recombinant human CK2 (RRββ-holoenzyme, 25 ng dissolved in ADB; Millipore). Reactions were initiated by the addition of 10 μL of ATP solution (90% 75 mMMgCl2, 75 μM ATP (final ATP concentration:15 μM) dissolved in ADB; 10% [γ-33P] ATP (stock 1 mCi/100 μL; 3000 Ci/mmol (Perkin-Elmer) and maintained for 10 min at 30° C. The reactions were quenched with 100 μL of 0.75% phosphoric acid and then transferred to and filtered through a phosphor cellulose filter plate (Millipore). After washing each well five times with 0.75% phosphoric acid, the plate was dried under vacuum for 5 min and, following the addition of 15 μL of scintillation fluid to each well, the residual radioactivity was measured using a Wallac luminescence counter. The IC50 values were derived from eight concentrations of test inhibitors.

`O=C(O)c1cc2nc(Nc3cccc(Cl)c3)c3ccncc3c2[nH]1` [Compound 1, 5-((3-chlorophenyl)amino)-1H-pyrrolo[3,2-c][2,6]naphthyridine-2-carboxylic acid] gave an IC50 [1] of 1100 nM, an IC50 [2] of 2200 nM and an IC50 [3] of 3900 nM. For the same compound, the IC50 [4] was 2400 nM, the IC50 [5] was 3500 nM and the IC50 [6] was 900 nM. For the same compound, the IC50 [7] was 1500 nM, the IC50 [8] was 2600 nM and the IC50 [9] was 21 nM.
